Results: patent US20180344702A1, “METHODS FOR TREATING PATIENTS WITH HEMATOLOGIC MALIGNANCIES” (Aptose Biosciences, Inc., priority 2017, published 2018)

How the values were obtained:
FLT3(D835H) = target: T1, FLT3(D835H) (Homo sapiens, UniProt P36888, D835H); experiment: Binding constant (Kd), kinase-tagged phage / affinity bead competition binding with qPCR readout
T1 construct: made in house; host or cells: E. coli BL21-derived host (T7 phage) or HEK-293

FLT3(N841I) = target: T2, FLT3(N841I) (Homo sapiens, UniProt P36888, N841I); experiment: Binding constant (Kd), competition binding with qPCR readout
T2 construct: made in house; host or cells: E. coli BL21-derived host (T7 phage) or HEK-293

FLT3(D835Y) = target: T3, FLT3(D835Y) (Homo sapiens, UniProt P36888, D835Y); experiment: Inhibition of FLT3 mutants, kinase IC50; format: biochemical
T3 construct: made in house; host or cells: E. coli BL21-derived host (T7 phage) or HEK-293
Method: (§1) RBC HotSpot Kinase Assay Protocol:
(§2) Reagents used: Base Reaction buffer; 20 mM Hepes (pH 7.5), 10 mM MgCl2, 1 mM EGTA, 0.02% Brij35, 0.02 mg/ml BSA, 0.1 mM Na3VO4, 2 mM DTT, 1% DMSO. Required cofactors are added individually to each kinase reaction.
(§3) Compound 7 was dissolved in 100% DMSO to a specified concentration. The serial dilution was conducted by epMotion 5070 in DMSO. The substrate was freshly prepared in Reaction Buffer and any required cofactors to the substrate solution were added. The kinase was added to the solution and gently mixed. Compound 7 was added in 100% DMSO into the kinase reaction mixture by Acoustic technology (Echo550; nanoliter range), and incubated for 20 min at room temperature. ^33P-ATP (Specific activity 10 μCi/μl) was added into the reaction mixture to initiate the reaction, which was incubated for 2 hours, whereupon kinase activity was detected by the filter-binding method.

FLT3(WT) = FLT3(WT) (Homo sapiens, UniProt P36888); experiment: Inhibition of FLT3, kinase IC50; format: biochemical
Method: as §1, §2, §3

BTK WT = BTK WT (Homo sapiens, UniProt Q06187); experiment: Comparative potency against BTK (Table 8); format: biochemical; settings: Table 8, wild-type BTK
BTK C481S [1] = target: T4, BTK C481S (Homo sapiens, UniProt Q06187, C481S); experiment: Comparative potency against BTK (Table 8); format: biochemical; settings: x printed without key
[2] = system: Ba/F3 cells transfected with FLT3 ITD-D835Y; experiment: Cytotoxicity in isogenic transfected Ba/F3 cells (Table 4); format: cell-based, Murin; settings: Mus musculus, BaF3, read-out: IC50 in Transfected Ba/F3 cells, FLT3 ITD-D835Y
[3] = system: Ba/F3 cells transfected with FLT3 ITD-F691L; experiment: as above; format: cell-based, Murin; settings: Mus musculus, BaF3, read-out: IC50 in Transfected Ba/F3 cells, FLT3 ITD-F691L
Ba/F3-FLT3 (FLT3-WT) = experiment: Antiproliferative activity (Table 6); format: cell-based, Murin; settings: 72 h
Ba/F3-D835Y (FLT3-D835Y) = experiment: Antiproliferative activity (Table 6); format: cell-based, Murin; settings: 72 h
[4] = system: MOLM13 (FLT3-ITD, t(9:11)); experiment: Antiproliferative activity (Table 6); format: cell-based; settings: Homo sapiens, MOLM-13, 72 h
[5] = system: MOLM14 (FLT3-ITD, t(9:11)); experiment: Antiproliferative activity (Table 6); format: cell-based; settings: Homo sapiens, MOLM-14, 72 h
THP-1 (FLT3-WT, t(9:11)) = experiment: Antiproliferative activity (Table 6); format: cell-based; settings: Homo sapiens, THP-1, 72 h
[6] = system: BTK pathway in MV4-11 cells; experiment: Western blot analysis in MV4-11 cells; format: cell-based, human; settings: 0.5, 5.0, and 50 nM, FIG. 2
Method: (§4) Immunoblot assays: Cells were treated with Compound 7 at various concentrations and collected for cell lysates. The total and phosphorylated levels of the indicated proteins were determined by Western Blot.

[7] = system: FLT3 pathway in MV4-11 cells; experiment: Western blot analysis in MV4-11 cells; format: cell-based, human; settings: FIG. 1
Method: as §4

MV4-11 cells = experiment: Apoptosis of MV4-11 cells (Annexin V, Western blot); format: cell-based, human
Method: The data presented in FIGS. 7A-7C, FIGS. 8A-8B, and FIGS. 17A-17J were generated using well-known protocols for measuring apoptosis, which are readily apparent to a skilled artisan. Without being bound by any theory, an overview of the procedure can be found in, for example, Rieger et al., Modified Annexin V/Propidium Iodide Apoptosis Assay For Accurate Assessment of Cell Death, J VI. Exp. 2011; (50): 2597.
IC50s and EC50s: Certain cell viability studies described herein were assessed using the Tryptan blue dye exclusion method or the MTS assay. Certain apoptosis studies and related studies described herein were determined via FACS by annexin V positivity.

[8] = Pharmacokinetic study in rat; format: in vivo
[9] = system: Aurora kinase in MV4-11 cells; experiment: Cell signaling Western blot; format: cell-based, human; settings: FIG. 24
Method: as §4

Ramos = experiment: Apoptosis in B-cell malignancies (annexin V/PI, cleaved PARP); format: cell-based; settings: increasing concentrations
Method: Mechanistic studies were undertaken to determine the mechanism of action for Compound 7. The apoptotic state of treated cells was determined by staining with annexin V and propidium iodide (PI), then analysis with the BD Accuri C6 flow cytometer, whereby live cells are annexin V/PI negative, early apoptotic cells are annexin V positive and late apoptotic cells are annexin V and PI positive. In addition production of cleaved PARP, a classic apoptotic marker, was assayed by western blotting with specific antibodies.

[10] = system: BCR signaling in Ramos cells; experiment: BCR signaling in IgM-stimulated Ramos cells; format: cell-based; settings: 1 or 6 hours, then 12 μg/mL IgM for 3 min
Method: In this experiment, Ramos cells were treated with or without Compound 7 or Ibrutinin at the indicated concentration for 1 (6 replicates) or 6 (3 replicates) hours, then stimulated with 12 μg/mL IgM for 3 min.

FLT3(ITD) = FLT3(ITD) (Homo sapiens, UniProt P36888); experiment: Inhibition of FLT3 mutants, kinase IC50; format: biochemical; design: IC50; other: FLT3(ITD)
Method: as §1, §2, §3

BTK C481S [11] = target: T4, BTK C481S; experiment: Inhibition of BTK, kinase IC50; format: biochemical; design: RBC (only as the name of the general kinase protocol)
Method: as §1, §2, §3

T4 sequence (Q06187 whole entry C481S): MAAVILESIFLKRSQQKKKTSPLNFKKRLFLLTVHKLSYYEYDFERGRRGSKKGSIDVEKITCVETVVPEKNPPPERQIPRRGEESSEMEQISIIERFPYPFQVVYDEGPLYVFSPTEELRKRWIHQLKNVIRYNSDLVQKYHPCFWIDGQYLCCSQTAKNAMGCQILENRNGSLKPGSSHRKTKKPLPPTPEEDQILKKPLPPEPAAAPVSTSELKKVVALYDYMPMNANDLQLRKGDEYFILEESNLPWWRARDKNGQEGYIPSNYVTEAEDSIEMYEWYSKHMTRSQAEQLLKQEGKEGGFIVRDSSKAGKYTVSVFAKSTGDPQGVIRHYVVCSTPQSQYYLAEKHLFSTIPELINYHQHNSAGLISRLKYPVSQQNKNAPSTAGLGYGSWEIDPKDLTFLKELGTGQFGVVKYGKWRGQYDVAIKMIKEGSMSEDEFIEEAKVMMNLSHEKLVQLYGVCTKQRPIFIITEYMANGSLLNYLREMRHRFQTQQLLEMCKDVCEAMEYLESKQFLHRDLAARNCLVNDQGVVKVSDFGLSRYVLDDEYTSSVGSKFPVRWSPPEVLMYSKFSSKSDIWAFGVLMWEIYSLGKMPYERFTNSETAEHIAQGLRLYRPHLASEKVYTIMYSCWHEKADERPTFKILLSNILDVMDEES
Chain of BTK WT (Q06187 whole entry): as the sequence (Q06187 whole entry C481S) above, with S481C counted along it

Cc1cnc(-c2ccc(-c3ccc(NC(=O)Nc4c(F)cc(F)cc4F)cc3F)c3c2C(=O)NC3)[nH]1 [Compound 7, 1-{3-fluoro-4-[7-(5-methyl-1H-imidazol-2-yl)-1-oxo-2,3-dihydro-1H-isoindol-4-yl]-phenyl}-3-(2,4,6-trifluorophenyl)urea]
Kd (FLT3(D835H)): 2.2 nM | Kd (FLT3(N841I)): 0.76 nM | IC50 (FLT3(D835Y)): 166 nM | IC50 (FLT3(WT)): 8.75 nM | IC50 (BTK WT): 5 nM | IC50 (BTK C481S [1]): 2.5 nM | IC50 [2]: 19.3 nM | IC50 [3]: 10 nM | IC50 (Ba/F3-FLT3 (FLT3-WT)): 9.49 nM | IC50 (Ba/F3-D835Y (FLT3-D835Y)): 8.26 nM | IC50 [4]: 0.82 nM | IC50 [5]: 0.92 nM | IC50 (THP-1 (FLT3-WT, t(9:11))): 3.88 nM | Inhibition of BTK pathway (Western blot) [6]: inhibits BTK pathway | Inhibition of FLT3 pathway (Western blot) [7]: inhibits FLT3 pathway | Time dependency of apoptosis (MV4-11 cells; MV4-11 cells, 1, 3, 6, 24 hour): induces apoptosis in a time dependent manner | Apoptosis induction (MV4-11 cells; MV411 cells, 24 hours, various concentrations): induces apoptosis | Exposure ([8]; 2 mg/kg administered by i.v.): Reasonable exposure | AUC ([8]; administered orally, FIG. 5): AUC improves in a dose-dependent manner | Aurora kinase activity and signaling (Western blot) [9]: inhibits Aurora kinase activity and signaling | Apoptosis induction versus ibrutinib (Ramos): induced apoptosis more effectively than ibrutinib at all concentrations tested | BCR signaling [10]: affects the BCR signaling | IC50 (FLT3(ITD)): 0.817 nM | IC50 (BTK C481S [11]): 2.52 nM
